Reference: patent US20260327211A1, “MODULATORS OF A POTASSIUM CHANNEL AND OF TRPV1 CHANNEL AND USES THEREOF” (Bsense Bio Therapeutics Ltd., priority 2023, published 2026)
pEC50, pIC50: −log10 of the molar value. Read-outs that look alike come from different tables or passages of the source.

Tests used:
[1] = molecular target: T1, CYP1A2 (Homo sapiens, UniProt P05177); assay: CYP inhibition / time-dependent inhibition, CYP1A2_Phenacetin; assay type: in vitro ADME; details: role: inhibitor
T1 construct: pre-incubation of the human liver microsomes with the test compound; tissue Corning; host or cells: human liver microsomes
T1 sequence (P05177 1-516): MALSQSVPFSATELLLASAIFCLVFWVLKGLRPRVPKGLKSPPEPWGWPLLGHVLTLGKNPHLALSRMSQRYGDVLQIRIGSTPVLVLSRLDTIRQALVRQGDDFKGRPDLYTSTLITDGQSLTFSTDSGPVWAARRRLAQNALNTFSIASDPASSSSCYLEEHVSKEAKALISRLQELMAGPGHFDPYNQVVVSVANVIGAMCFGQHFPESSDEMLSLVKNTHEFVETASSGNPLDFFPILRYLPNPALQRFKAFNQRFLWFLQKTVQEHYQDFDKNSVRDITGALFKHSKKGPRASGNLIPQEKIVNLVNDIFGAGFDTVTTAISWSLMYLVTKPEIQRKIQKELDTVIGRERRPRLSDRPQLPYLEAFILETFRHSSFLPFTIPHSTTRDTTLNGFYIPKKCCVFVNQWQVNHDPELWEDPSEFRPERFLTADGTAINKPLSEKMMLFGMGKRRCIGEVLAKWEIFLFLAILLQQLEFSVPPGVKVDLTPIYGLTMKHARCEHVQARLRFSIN
Procedure: (§1) The time-dependent inactivation potency of the test compound to CYP enzymatic activities was assessed by the pre-incubation of the human liver microsomes with the test compound in the presence and absence of NADPH, followed by the incubation with the discrete marker substrates, as follows.
(§2) Pre-incubation with human liver microsomes (HLMs): The TDI inactivation potency on CYP enzymatic activities was evaluated through pre-incubation with HLMs (Corning). A liver microsome mixture at a concentration of 0.1 mg/mL, and the test compound at 8 different concentrations (0, 0.05, 0.165, 0.5, 1.65, 5.0, 16.5, or 50.0 μM) was warmed at 37° C. for 10 minutes. Concurrently, a set of known time-dependent inactivators was also prepared in duplicate for comparison. Following this, NADPH (1.0 mM) was added to one group (Group 1), and an equal volume of potassium phosphate buffer to the second group (Group 2), marking the beginning of a 30-minute pre-incubation at 37° C.
(§3) Incubation: After pre-incubation, the marker substrate, or marker substrate plus NADPH was added to the mixture, thereby initiating the incubation. The duration of the incubation was dependent on the type of CYP isoform being evaluated. For example, with the CYP3A isoform, the mixture was incubated over 3 minutes utilizing midazolam as the marker substrate (2.0 μM), verapamil as the standard inactivator (3.5 μM).
(§4) Termination of Reaction: Following the incubation, ice-cooled acetonitrile containing the internal standard (IS) was added to halt the reactions. Metabolites generated from the marker substrates were then measured via LC-MS/MS, assessed based on peak area ratios of the analyte to IS.

[2] = tested on: rats; assay: Accelerating rotarod; assay type: in vivo, rat
Procedure: Rotarod: There were two days of training in which rats were trained at a constant speed of 5 RPM for 180 seconds. After each fall the rats were placed back on the rotating rod until 180 seconds were reached. Then, the actual test started on study day 0 using the accelerating rotarod methodology. Animals were placed on the rod, which was accelerated 5-40 RPM over 180 seconds. Acceleration rate (0.19 RPM/second) was calculated from delta velocity (v2−v1) divided by delta time (t2−t1). The time to the first fall of each animal was documented, in addition to the distance and speed.

[3] = molecular target: T2, CYP2C8 (Homo sapiens, UniProt P10632); assay: CYP inhibition / time-dependent inhibition, CYP2C8_Amodiaquine; assay type: in vitro ADME; details: role: inhibitor
T2 construct: pre-incubation of the human liver microsomes with the test compound; tissue Corning; host or cells: human liver microsomes
T2 sequence (P10632 1-490): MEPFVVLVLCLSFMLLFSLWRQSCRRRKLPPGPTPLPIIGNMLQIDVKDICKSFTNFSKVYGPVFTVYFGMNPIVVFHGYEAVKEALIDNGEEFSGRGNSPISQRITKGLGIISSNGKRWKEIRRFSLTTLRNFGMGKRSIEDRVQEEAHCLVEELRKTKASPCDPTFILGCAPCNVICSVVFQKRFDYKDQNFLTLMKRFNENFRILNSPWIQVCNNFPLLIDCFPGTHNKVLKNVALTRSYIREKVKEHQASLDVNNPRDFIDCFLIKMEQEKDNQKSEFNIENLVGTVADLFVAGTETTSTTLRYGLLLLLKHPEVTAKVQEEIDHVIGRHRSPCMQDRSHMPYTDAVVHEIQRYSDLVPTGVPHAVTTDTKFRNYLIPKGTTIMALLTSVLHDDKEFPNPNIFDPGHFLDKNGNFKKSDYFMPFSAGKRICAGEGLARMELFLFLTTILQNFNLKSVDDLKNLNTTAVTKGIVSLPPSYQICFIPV
Procedure: as §1, §2, §3, §4

[4] = molecular target: T3, kappa opioid receptors (Homo sapiens, UniProt P41145); assay: Functional selectivity panel, kappa opioid receptors; assay type: biochemical
T3 construct: Eurofins DiscoverX, USA
T3 sequence (P41145 whole entry): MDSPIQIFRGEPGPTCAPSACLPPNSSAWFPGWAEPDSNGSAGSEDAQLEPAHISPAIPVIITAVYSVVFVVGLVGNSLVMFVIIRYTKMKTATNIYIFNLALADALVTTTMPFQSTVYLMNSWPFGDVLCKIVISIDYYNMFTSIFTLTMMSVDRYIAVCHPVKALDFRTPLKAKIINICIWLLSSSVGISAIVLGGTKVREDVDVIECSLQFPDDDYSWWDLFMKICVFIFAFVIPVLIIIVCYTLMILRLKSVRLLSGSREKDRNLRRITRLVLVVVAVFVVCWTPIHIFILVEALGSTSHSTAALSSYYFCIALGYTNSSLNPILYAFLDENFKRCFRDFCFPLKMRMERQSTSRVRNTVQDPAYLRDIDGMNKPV
Procedure: (§5) A broad panel of 78 recombinant targets was tested for pharmacologic activity in vitro through a variety of functional assays (Eurofins DiscoverX, USA), as part of the National Institute of Neurological Disorders and Stroke (NINDS) Preclinical Screening Platform for Pain (PSPP) program. The biological targets for the in vitro profiling have been selected based on avoiding opioid receptor stimulation and targets known to be associated with adverse events or targeted by drugs of abuse. […] For each test, a reference compound was evaluated at the target of interest as a positive control.

[5] = molecular target: T4, Kv7.1 (Homo sapiens, UniProt P51787); assay: Kv7.1; assay type: biochemical
T4 construct: Eurofins DiscoverX, USA (assay provider)
T4 sequence (P51787 whole entry): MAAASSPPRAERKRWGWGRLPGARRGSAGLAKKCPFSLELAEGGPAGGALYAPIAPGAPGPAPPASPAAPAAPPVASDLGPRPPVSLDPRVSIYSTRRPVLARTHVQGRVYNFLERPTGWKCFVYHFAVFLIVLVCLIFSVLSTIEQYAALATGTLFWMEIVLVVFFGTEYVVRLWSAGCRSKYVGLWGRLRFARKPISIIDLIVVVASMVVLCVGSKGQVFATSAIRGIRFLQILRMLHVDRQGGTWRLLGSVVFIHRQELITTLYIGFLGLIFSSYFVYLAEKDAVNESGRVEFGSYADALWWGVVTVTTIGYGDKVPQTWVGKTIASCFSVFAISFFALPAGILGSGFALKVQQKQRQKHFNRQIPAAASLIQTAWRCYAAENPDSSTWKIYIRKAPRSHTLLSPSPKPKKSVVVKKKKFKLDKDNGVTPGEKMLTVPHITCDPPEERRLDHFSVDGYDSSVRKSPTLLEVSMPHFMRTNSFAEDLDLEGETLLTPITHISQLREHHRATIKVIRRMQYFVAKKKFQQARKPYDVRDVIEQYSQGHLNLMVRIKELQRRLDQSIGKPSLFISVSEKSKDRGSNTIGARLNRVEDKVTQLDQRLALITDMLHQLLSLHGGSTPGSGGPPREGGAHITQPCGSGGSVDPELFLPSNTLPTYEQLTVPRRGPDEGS
Procedure: as §5

[6] = tested on: rats; assay: Core body temperature; assay type: in vivo, rat
Procedure: Core Body Temperature: Following two days of habituation to the measurement method, the body temperature was measured on study day for baseline values and then again post-dosing in the time points indicated in the figure. Body temperature was measured using a probe gently inserted into the animal anus using a corn oil lubricant (C8267, Sigma-Aldrich, IL).

[7] = molecular target: T5, adrenergic β2 (Homo sapiens, UniProt P07550); assay: Functional selectivity panel, adrenergic β2; assay type: biochemical
T5 construct: Eurofins DiscoverX, USA
T5 sequence (P07550 whole entry): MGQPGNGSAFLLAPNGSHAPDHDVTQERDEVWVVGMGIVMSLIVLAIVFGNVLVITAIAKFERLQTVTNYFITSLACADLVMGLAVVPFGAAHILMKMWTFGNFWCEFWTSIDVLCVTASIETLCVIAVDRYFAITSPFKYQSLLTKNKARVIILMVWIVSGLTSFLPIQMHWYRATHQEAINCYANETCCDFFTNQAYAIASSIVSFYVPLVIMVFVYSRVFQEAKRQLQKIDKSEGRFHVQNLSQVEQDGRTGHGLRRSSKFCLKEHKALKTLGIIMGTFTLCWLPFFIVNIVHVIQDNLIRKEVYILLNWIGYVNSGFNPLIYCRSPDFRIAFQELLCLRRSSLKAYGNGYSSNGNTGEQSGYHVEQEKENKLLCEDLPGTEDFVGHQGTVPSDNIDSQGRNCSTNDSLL
Procedure: as §5

[8] = Human hepatocyte stability; assay type: in vitro ADME; details: human hepatocytes; for half-life: read-out: Hepatocytes (human) T1/2

Structure (SMILES)	pIC50 ([1]; Table 9, read-out: CYP inhibition IC50 CYP1A2)	Rotarod ([2]; up to 300 mg/kg oral)	pIC50 ([3]; Table 9, read-out: CYP inhibition IC50 CYP2C8)	Effect on Opioid kappa ([4]; up to 10 micromolar)	Effect on Kv7.1 ([5]; up to 10 micromolar)	Core body temperature ([6]; up to 300 mg/kg oral)	pIC50 ([7]; antagonist, read-out: IC/EC50 Adrenergic β2-antagonist)	pIC50 ([1]; (+)NADPH pre-incubation, substrate phenacetin, read-out: IC50 (+)NADPH CYP1A2_Phenacetin)	pIC50 ([1]; (−)NADPH pre-incubation, substrate phenacetin, read-out: IC50 (−)NADPH CYP1A2_Phenacetin)	Rotarod performance ([2]; 20 and 50 mg/kg PO, 1 and 4 hour post-dose)	pIC50 ([3]; (+)NADPH pre-incubation, substrate amodiaquine, read-out: IC50 (+)NADPH CYP2C8_Amodiaquine)	pIC50 ([3]; (−)NADPH pre-incubation, substrate amodiaquine, read-out: IC50 (−)NADPH CYP2C8_Amodiaquine)	pEC50 ([4]; PAM)	CLint scaled [8]	half-life [8]	Kv7.1 activity ([5]; up to solubility limit)	Core body temperature ([6]; 20 and 50 mg/kg PO)	Core body temperature ([6]; up to 300 mg/kg, 1-24 hours post-dose)	pIC50 ([7]; read-out: adrenergic β2 IC50)
O=C(Cc1nccc(-n2cc(Cl)c3cc(Cl)cc(Cl)c32)n1)NC1COCC1O (stereo not drawn) [Compound 760]	< 4.30	displayed safety potential at up to 300 mg/kg oral dosing	4.31	no effect	no effect	displayed safety potential at up to 300 mg/kg oral dosing	4.34												
O=C(Cc1cncc(-n2cc(Cl)c3cc(Cl)cc(Cl)c32)c1)N[C@@H]1COC[C@H]1O [Compound 661]								< 4.30	< 4.30	did not affect rotarod performance	4.78	4.84	5.15	73.8 mL/min/kg	52.2 min	no measurable activity at any concentration tested	no significant change in core body temperature	no effects on core body temperature	5.40
O=C(Cc1cc(-n2cc(Cl)c3cc(Cl)cc(Cl)c32)ccc1F)NCCO [Compound 627]														190 mL/min/kg	20.3 min				
